Reference: US20100160440A1, “INTRANASAL PHARMACEUTICAL COMPOSITIONS COMPRISING SUCCINIC ACID AND METHODS THEREOF” (priority 2007, published 2010)
Read-outs that look alike come from different tables or passages of the source.

Test system: male Wistar rats injected with beta-amyloid peptide 25-35 into NBM
Details: for Improvement in learning and memory as compared to control rats: 1 mg/kg for 7 days; for Latency (retention latency to enter dark compartment, mean±SD): 1 mg/kg succinic acid water solution once a day for 7 days from day 16 after beta-amyloid, retention trial 24 h after acquisition, cut-off 180 s, n=8
Protocol: Beta-amyloid was administered bilaterally into NBM of male Wistar rats in dose of 2 μg per each side. On day 16th after the amyloid injection, rats received intranasally or intraperitoneally compositions comprising a water solution of 1 mg/kg of succinic acid for 7 days singly a day. Control rats received saline intranasally. On day next to the last day of the treatment, passive avoidance performance in rats was tested for two consecutive days. A two-compartment, step-through, passive avoidance apparatus consisting of illuminated (25×40×25 cm) and dark (25×40×25 cm) compartments attached to an electrified grid floor and separated by a guillotine door (8×8 cm) was used. In the acquisition trial, the rat was placed in the illuminated compartment in a position its tail directed to the closed door for 2 min to habituate to the apparatus. The guillotine door was opened and time to enter to dark compartment was recorded. When the rat entered to dark compartment completely (four foots in dark compartment), the guillotine door was closed and the rat was delivered an electrical shock of 0.8 mA for 3 sec through the grid floor. After the shock, the rat was immediately placed in home cage. In the retention trial, conducted 24 h after the acquisition trial, the rat was placed in the illuminated compartment and the retention latency to enter into the dark compartment was recorded until 180 s had elapsed. […] Data are presented as retention latency mean±SD (n=8).

**Q.** With `O=C(O)CCC(=O)O` [Succinic acid] as the compound, how does the “Improvement in learning and memory as compared to control rats” value (intranasally treated rats) read?
**A.** significant improvement in learning and memory

**Q.** What about the “Latency (retention latency to enter dark compartment, mean±SD)” value (intranasally) of the same compound?
**A.** 87 ± 21 s

**Q.** And the “Improvement in learning and memory as compared to control rats” value (intraperitoneally treated rats)?
**A.** do not

**Q.** What about the “Latency (retention latency to enter dark compartment, mean±SD)” value (intraperitoneally) of the same compound?
**A.** 43 ± 19 s
